Assay [1] has as its target T1, PTPN2 (i.e., TC-PTP) (Homo sapiens, UniProt P17706).
T1 sequence (P17706 1-415): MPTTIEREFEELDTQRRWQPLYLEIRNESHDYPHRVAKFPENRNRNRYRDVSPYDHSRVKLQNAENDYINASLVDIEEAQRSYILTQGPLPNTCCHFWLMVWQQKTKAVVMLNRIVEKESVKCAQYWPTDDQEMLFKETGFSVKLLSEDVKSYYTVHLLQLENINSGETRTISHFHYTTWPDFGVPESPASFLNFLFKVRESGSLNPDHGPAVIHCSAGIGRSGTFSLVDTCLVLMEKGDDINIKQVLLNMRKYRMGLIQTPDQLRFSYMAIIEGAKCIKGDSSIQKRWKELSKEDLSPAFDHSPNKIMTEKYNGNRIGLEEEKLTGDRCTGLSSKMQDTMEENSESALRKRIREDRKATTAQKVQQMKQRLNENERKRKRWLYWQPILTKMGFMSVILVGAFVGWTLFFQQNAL
Nature of the assay: Phosphatase activity assay (DiFMUP substrate), PTPN2. The format is biochemical. The following applies: compounds binned ≤1 uM or >1 uM. The method, boiled down:
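Enzyme (e.g. PTPN2 0.025 ng/ul) mixed about 2 min with compound at 10 serial concentrations in 50 mM HEPES pH 7.5, 150 mM NaCl, 0.5 mM EDTA, 1 mM DTT, 0.001% Tween-20 at room temperature. DiFMUP added at each enzyme's Km (about 45 μM for PTPN2). DiFMU fluorescence (ex 360/em 450 nm) followed 15-30 min; IC50 from 4-parameter fit of rates.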

For assay [2], the target named is T2, PTPN1 (i.e., PTP1B) (Homo sapiens, UniProt P18031).
T2 sequence (P18031 1-435): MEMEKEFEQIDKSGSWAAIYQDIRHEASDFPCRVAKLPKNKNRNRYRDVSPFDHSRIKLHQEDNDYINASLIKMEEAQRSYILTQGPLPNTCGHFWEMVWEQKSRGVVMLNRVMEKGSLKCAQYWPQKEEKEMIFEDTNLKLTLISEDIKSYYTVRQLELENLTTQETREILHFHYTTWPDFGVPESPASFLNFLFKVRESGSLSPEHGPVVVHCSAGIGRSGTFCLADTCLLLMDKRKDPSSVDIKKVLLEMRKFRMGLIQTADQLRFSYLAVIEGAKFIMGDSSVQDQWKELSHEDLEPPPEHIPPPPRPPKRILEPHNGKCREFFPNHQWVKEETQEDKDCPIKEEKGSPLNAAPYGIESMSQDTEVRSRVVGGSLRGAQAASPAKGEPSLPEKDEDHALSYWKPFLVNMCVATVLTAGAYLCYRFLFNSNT
The assay is described as follows: Phosphatase activity assay (DiFMUP substrate), PTP1B. Format: biochemical. To be noted: compounds binned ≤1 uM or >1 uM. The method, boiled down:
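First, serially diluted inhibitor is mixed about 2 minutes with enzyme in pH 7.5 HEPES/NaCl/EDTA/DTT/Tween-20 buffer. Next, DiFMUP is added at the enzyme's Km, approximately 45 μM for PTPN2. Finally, DiFMU appearance is read continuously at room temperature and rates are fitted for IC50.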

Each structure is given as a SMILES string. Where only a bound is given, the exact number is not on record here.

This note sets out measurements from patent US20240398828A1, “HETERO-ATOM CONTAINING COMPOUNDS AND USES THEREOF” (Kumquat Biosciences Inc., priority 2021, published 2024).

Broadly, the IC50 is the concentration that gives 50% inhibition.

Take `O=C1CN(c2c(O)ccc(-c3cc(N4CC(F)(F)C4)n[nH]3)c2F)S(=O)(=O)N1` [Compound 451, 5-(3-(3-(3,3-difluoroazetidin-1-yl)-1H-pyrazol-5-yl)-2-fluoro-6-hydroxyphenyl)-1,2,5-thiadiazolidin-3-one 1,1-dioxide]: the IC50 in assay [1] and in assay [2] was not above 1000 nM each time.
On to `O=C1CN(c2c(O)ccc(-c3cc(C4CC4)n(CC(F)F)n3)c2F)S(=O)(=O)N1` [Compound 435, 5-(3-(5-cyclopropyl-1-(2,2-difluoroethyl)-1H-pyrazol-3-yl)-2-fluoro-6-hydroxyphenyl)-1,2,5-thiadiazolidin-3-one 1,1-dioxide], for which the IC50 in assay [1] and in assay [2] was not above 1000 nM throughout.
As for `O=C1CN(c2c(O)ccc(-c3cc(C4CC4)n[nH]3)c2F)S(=O)(=O)N1` [Compound 421, 5-(3-(3-cyclopropyl-1H-pyrazol-5-yl)-2-fluoro-6-hydroxyphenyl)-1,2,5-thiadiazolidin-3-one 1,1-dioxide], the IC50 in assay [1] and in assay [2] was not above 1000 nM in each case.
As to `O=C1CN(c2c(O)ccc(-c3cn(-c4ccc(F)c(F)c4)cn3)c2F)S(=O)(=O)N1` [Compound 289, 5-(3-(1-(3,4-difluorophenyl)-1H-imidazol-4-yl)-2-fluoro-6-hydroxyphenyl)-1,2,5-thiadiazolidin-3-one 1,1-dioxide], the IC50 in assay [1] and in assay [2] was not above 1000 nM in each case.
As for `Cc1cc(-c2ccc(O)c(N3CC(=O)NS3(=O)=O)c2F)n(C)n1` [Compound 284, 5-(3-(1,3-dimethyl-1H-pyrazol-5-yl)-2-fluoro-6-hydroxyphenyl)-1,2,5-thiadiazolidin-3-one 1,1-dioxide], the IC50 in assay [1] and in assay [2] was not above 1000 nM throughout.
For the molecule `CC1C=C(c2ccc(O)c(N3CC(=O)NS3(=O)=O)c2F)CN1` (stereo not drawn) [Compound 282, 5-(2-fluoro-6-hydroxy-3-(5-methyl-2,5-dihydro-1H-pyrrol-3-yl)phenyl)-1,2,5-thiadiazolidin-3-one 1,1-dioxide], the IC50 in assay [1] and in assay [2] was not above 1000 nM in each case.
On to `O=C1CN(c2c(O)ccc(-c3cnn(Cc4cncnc4)c3)c2F)S(=O)(=O)N1` [Compound 197, 5-(2-fluoro-6-hydroxy-3-(1-(pyrimidin-5-ylmethyl)-1H-pyrazol-4-yl)phenyl)-1,2,5-thiadiazolidin-3-one 1,1-dioxide], for which the IC50 in assay [1] and in assay [2] was not above 1000 nM each time.
Take `O=C1CN(c2c(O)ccc(-c3ccc(NC(=O)C4CC4)cc3)c2F)S(=O)(=O)N1` [Compound 395, N-(3′-(1,1-dioxido-4-oxo-1,2,5-thiadiazolidin-2-yl)-2′-fluoro-4′-hydroxy-[1,1′-biphenyl]-4-yl)cyclopropanecarboxamide]: the IC50 in assay [1] and in assay [2] was not above 1000 nM throughout.
Turning to `O=C1CN(c2c(O)ccc(-c3cc(N4CCC5(CCCN5)C4)n[nH]3)c2F)S(=O)(=O)N1` (stereo not drawn) [Compound 321, 5-(3-(3-(1,7-diazaspiro[4.4]nonan-7-yl)-1H-pyrazol-5-yl)-2-fluoro-6-hydroxyphenyl)-1,2,5-thiadiazolidin-3-one 1,1-dioxide], the IC50 in assay [1] and in assay [2] was not above 1000 nM throughout.
Turning to `O=C1CN(c2c(O)ccc(-c3cnn(Cc4cccc(F)c4)c3)c2F)S(=O)(=O)N1` [Compound 222, 5-(2-fluoro-3-(1-(3-fluorobenzyl)-1H-pyrazol-4-yl)-6-hydroxyphenyl)-1,2,5-thiadiazolidin-3-one 1,1-dioxide], the IC50 in assay [1] and in assay [2] was not above 1000 nM each time.
Turning to `O=C1CN(c2c(O)ccc(-c3cnn(Cc4cc(F)cc(F)c4)c3)c2F)S(=O)(=O)N1` [Compound 113, 5-(3-(1-(3,5-difluorobenzyl)-1H-pyrazol-4-yl)-2-fluoro-6-hydroxyphenyl)-1,2,5-thiadiazolidin-3-one 1,1-dioxide], the IC50 in assay [1] and in assay [2] was not above 1000 nM in each case.
As for `O=C1CN(c2c(O)ccc(C3=CCN(CC4CCCCC4)C3)c2F)S(=O)(=O)N1` [Compound 267, 5-(3-(1-(cyclohexylmethyl)-2,5-dihydro-1H-pyrrol-3-yl)-2-fluoro-6-hydroxyphenyl)-1,2,5-thiadiazolidin-3-one 1,1-dioxide], the 50% inhibitory concentration (IC50) in assay [1] and in assay [2] was not above 1000 nM throughout.
For `NC1CC=C(c2ccc(O)c(N3CC(=O)NS3(=O)=O)c2F)C1` (stereo not drawn) [Compound 330, 5-(3-(4-aminocyclopent-1-en-1-yl)-2-fluoro-6-hydroxyphenyl)-1,2,5-thiadiazolidin-3-one 1,1-dioxide], the IC50 in assay [1] and in assay [2] was not above 1000 nM throughout.
Take `O=C1CN(c2c(O)ccc(-c3cc(CCC4CCCCC4)n[nH]3)c2F)S(=O)(=O)N1` [Compound 455, 5-(3-(3-(2-cyclohexylethyl)-1H-pyrazol-5-yl)-2-fluoro-6-hydroxyphenyl)-1,2,5-thiadiazolidin-3-one 1,1-dioxide]: the IC50 in assay [1] and in assay [2] was not above 1000 nM throughout.
For the molecule `O=C1CN(c2c(O)ccc(-c3cn(-c4ccccc4F)cn3)c2F)S(=O)(=O)N1` [Compound 437, 5-(2-fluoro-3-(1-(2-fluorophenyl)-1H-imidazol-4-yl)-6-hydroxyphenyl)-1,2,5-thiadiazolidin-3-one 1,1-dioxide], the IC50 in assay [1] and in assay [2] was not above 1000 nM each time.
For `O=C1CN(c2c(O)ccc(-c3cc(CCC4CCC4)n[nH]3)c2F)S(=O)(=O)N1` [Compound 339, 5-(3-(3-(2-cyclobutylethyl)-1H-pyrazol-5-yl)-2-fluoro-6-hydroxyphenyl)-1,2,5-thiadiazolidin-3-one 1,1-dioxide], the IC50 in assay [1] and in assay [2] was not above 1000 nM in each case.
Regarding `COC(=O)C1C=C(c2ccc(O)c(N3CC(=O)NS3(=O)=O)c2F)CN1` (stereo not drawn) [Compound 399, methyl 4-(3-(1,1-dioxido-4-oxo-1,2,5-thiadiazolidin-2-yl)-2-fluoro-4-hydroxyphenyl)-2,5-dihydro-1H-pyrrole-2-carboxylate], the IC50 in assay [1] and in assay [2] was not above 1000 nM throughout.
For `CC(C)CC1C=C(c2ccc(O)c(N3CC(=O)NS3(=O)=O)c2F)CN1` (stereo not drawn) [Compound 531, 5-(2-fluoro-6-hydroxy-3-(5-isobutyl-2,5-dihydro-1H-pyrrol-3-yl)phenyl)-1,2,5-thiadiazolidin-3-one 1,1-dioxide], the IC50 in assay [1] and in assay [2] was not above 1000 nM throughout.
With `CN1CCC(Nc2cccc(-c3ccc(O)c(N4CC(=O)NS4(=O)=O)c3F)c2)CC1` [Compound 225, 5-(2-fluoro-4-hydroxy-3′-((1-methylpiperidin-4-yl)amino)-[1,1′-biphenyl]-3-yl)-1,2,5-thiadiazolidin-3-one 1,1-dioxide], the half-maximal inhibitory concentration (IC50) in assay [1] and in assay [2] was not above 1000 nM in each case.
With `O=C1CN(c2c(O)ccc(-c3cnn(C4CCCCC4)c3)c2F)S(=O)(=O)N1` [Compound 160, 5-(3-(1-cyclohexyl-1H-pyrazol-4-yl)-2-fluoro-6-hydroxyphenyl)-1,2,5-thiadiazolidin-3-one 1,1-dioxide], the half-maximal inhibitory concentration (IC50) in assay [1] and in assay [2] was not above 1000 nM in each case.
Regarding `CC(C)CCc1ncc(-c2ccc(O)c(N3CC(=O)NS3(=O)=O)c2F)[nH]1` [Compound 334, 5-(2-fluoro-6-hydroxy-3-(2-isopentyl-1H-imidazol-5-yl)phenyl)-1,2,5-thiadiazolidin-3-one 1,1-dioxide], the IC50 in assay [1] and in assay [2] was not above 1000 nM each time.
As to `N#CC1CC1c1cc(-c2ccc(O)c(N3CC(=O)NS3(=O)=O)c2F)[nH]n1` (stereo not drawn) [Compound 478, 2-(5-(3-(1,1-dioxido-4-oxo-1,2,5-thiadiazolidin-2-yl)-2-fluoro-4-hydroxyphenyl)-1H-pyrazol-3-yl)cyclopropane-1-carbonitrile], the IC50 in assay [1] and in assay [2] was not above 1000 nM throughout.
For the molecule `CC(C)c1cc(-c2ccc(O)c(N3CC(=O)NS3(=O)=O)c2F)[nH]n1` [Compound 379, 5-(2-fluoro-6-hydroxy-3-(3-isopropyl-1H-pyrazol-5-yl)phenyl)-1,2,5-thiadiazolidin-3-one 1,1-dioxide], the IC50 in assay [1] and in assay [2] was not above 1000 nM throughout.
With `O=C1CN(c2c(O)ccc(-c3cc(N4CCC5(CCC5)C4)n[nH]3)c2F)S(=O)(=O)N1` [Compound 248, 5-(3-(3-(6-azaspiro[3.4]octan-6-yl)-1H-pyrazol-5-yl)-2-fluoro-6-hydroxyphenyl)-1,2,5-thiadiazolidin-3-one 1,1-dioxide], the IC50 in assay [1] and in assay [2] was not above 1000 nM each time.
